Assay results taken from patent publication EP2915814A2, “Crystalline salts of sitagliptin” (priority 2008, dated 2010).
Counter-ions that a name gives are not always drawn. Marks after values point to notes of the source that are not given here.

Tests used:
[1] = Hygroscopicity studies (water content after storage at 43 %, 75 % and 93 % relative humidity); type: physicochemical; conditions: for Hygroscopicity 2 weeks 43 % rh: 2 weeks at 43 % rh; for Hygroscopicity 2 weeks 43 % rh / Hygroscopicity 2 weeks 75 % rh / Hygroscopicity 2 weeks 93 % rh: % Equilibrium moisture content, ss = semi solid state of sample, β = solid first changed into liquid and solidified again; for Hygroscopicity 2 weeks 75 % rh: 2 weeks at 75 % rh; for Hygroscopicity 2 weeks 93 % rh: 2 weeks at 93 % rh; for Initial water content: initial sample; for change during the hygroscopicity studies: 43 %, 75 % and 93 % relative humidity, confirmed by DSC of samples kept at 93 % relative humidity for 2 weeks
Text: The salts of the present invention and the free base were studied under three different humidity conditions (43 % relative humidity, 75 % relative humidity, and 93 % relative humidity).

[2] = Stability studies (storage at 60 °C in closed bottles or at 40 °C / 75 % RH in an open bottle; related substances by HPLC); conditions: for Related Substances 2 W 40°C/75 % RH open / Related Substances 2 W 60°C closed: 2 weeks, 20160 min; for Related Substances 4 w 40°C/75 % RH closed / Related Substances 4 w 40°C/75 % RH open / Related Substances 4 w 60°C Closed bottle: 4 weeks, 40320 min; for Related Substances 12 weeks 40°C/75 % RH closed bottle / Related Substances 12 weeks 40°C/75 % RH open bottle: 120960 min; for Initial Related Substances: before storage
[3] = closed bottle, two weeks at 60 °C
[4] = closed bottle, four weeks at 60 °C

Hygroscopicity 2 weeks 43 % rh [1]	Hygroscopicity 2 weeks 75 % rh [1]	Hygroscopicity 2 weeks 93 % rh [1]	Initial water content ([1]; before storage) [%]	Related Substances 2 W 40°C/75 % RH open [2] [%]	Related Substances 2 W 60°C closed [2] [%]	Related Substances 4 w 40°C/75 % RH closed [2] [%]	Related Substances 4 w 40°C/75 % RH open [2] [%]	Related Substances 4 w 60°C Closed bottle ([2]; closed bottle) [%]	Related Substances 12 weeks 40°C/75 % RH closed bottle ([2]; closed bottle) [%]	Related Substances 12 weeks 40°C/75 % RH open bottle ([2]; open bottle) [%]	Initial Related Substances [2] [%]	Structure (SMILES)	other results
1.13%	0.49%	0.96%	0.68	–	–	–	–	–	–	–	–	N[C@@H](CC(=O)N1CCn2c(nnc2C(F)(F)F)C1)Cc1cc(F)c(F)cc1F [K: Mesylate I]	–
0.32%	0.44%	0.83%	0.27	–	–	–	–	–	–	–	–	N[C@@H](CC(=O)N1CCn2c(nnc2C(F)(F)F)C1)Cc1cc(F)c(F)cc1F [Q : HCl II]	–
–	–	–	–	–	–	–	–	–	–	–	–	N[C@@H](CC(=O)N1CCn2c(nnc2C(F)(F)F)C1)Cc1cc(F)c(F)cc1F [phosphate monohydrate, sitagliptin dihydrogenphosphate, reference compound]	change during the hygroscopicity studies [1]: did not show much change; stability (degradation, related substances by HPLC) [2, 3]: stable
–	–	–	–	0.36	0.23	0.30	0.53	0.30	0.34	0.44	0.20	N[C@@H](CC(=O)N1CCn2c(nnc2C(F)(F)F)C1)Cc1cc(F)c(F)cc1F [Q: HCl II]	–
2.89%	3.37%	4.04%	2.08	0.16	0.16	0.08	0.08	0.12	0.07	0.11	0.11	N[C@@H](CC(=O)N1CCn2c(nnc2C(F)(F)F)C1)Cc1cc(F)c(F)cc1F [N: Mesylate II]	–
–	–	–	–	0.05	0.01	0.01	0.01	0.01	0.14	0.15	0.04	N[C@@H](CC(=O)N1CCn2c(nnc2C(F)(F)F)C1)Cc1cc(F)c(F)cc1F [B: HCl I, Sitagliptin Hydrochloride Form I]	Hygroscopicity (water content) ([1]; 2 weeks 43 % rh): 3.86%; Hygroscopicity (water content) ([1]; 2 weeks 75 % rh): 4.36%; Hygroscopicity (water content) ([1]; 2 weeks 93 % rh): 4.49%; Initial water content ([1]; before humidity storage): 1.4%; stability (degradation, related substances by HPLC) ([2]; closed bottle, four weeks at 60 °C, listed as HCl form I): stable; stability (degradation, related substances by HPLC) ([2]; closed bottle, two weeks at 60 °C, listed as HCl form I): stable; stability (degradation, related substances by HPLC) ([2]; open bottle, twelve weeks at 40 °C and 75 % RH, listed as HCl form I): stable
–	–	–	–	–	–	–	–	–	–	–	–	N[C@@H](CC(=O)N1CCn2c(nnc2C(F)(F)F)C1)Cc1cc(F)c(F)cc1F [maleate, sitagliptin maleate]	change during the hygroscopicity studies [1]: did not show much change; stability (degradation, related substances by HPLC) [2, 4]: showed a degradation
–	–	–	–	0.10	0.08	0.02	0.06	0.02	0.03	0.08	0.08	N[C@@H](CC(=O)N1CCn2c(nnc2C(F)(F)F)C1)Cc1cc(F)c(F)cc1F [E: Sulfate I, Sitagliptin Sulfate Form I]	Hygroscopicity (water content) ([1]; 2 weeks 43 % rh): 1.12%; Hygroscopicity (water content) ([1]; 2 weeks 75 % rh): 1.0%; Hygroscopicity (water content) ([1]; 2 weeks 93 % rh): 2.81%; Initial water content ([1]; before humidity storage): 0.69%; stability (degradation, related substances by HPLC) ([2]; closed bottle, four weeks at 60 °C, listed as sulfate (solvated)): stable; stability (degradation, related substances by HPLC) ([2]; closed bottle, two weeks at 60 °C, listed as sulfate (solvated)): stable
–	–	–	–	0.10	0.12	0.08	0.09	0.06	0.09	0.12	0.08	N[C@@H](CC(=O)N1CCn2c(nnc2C(F)(F)F)C1)Cc1cc(F)c(F)cc1F [M: Phosphate H2O]	–
–	–	–	–	–	–	–	–	–	–	–	–	N[C@@H](CC(=O)N1CCn2c(nnc2C(F)(F)F)C1)Cc1cc(F)c(F)cc1F [maleate (solvated), Sitagliptin Maleate Form I]	stability (degradation, related substances by HPLC) [2, 3]: degradation was observed
–	–	–	–	0.27	0.37	0.46	0.39	0.46	0.52	0.39	0.36	N[C@@H](CC(=O)N1CCn2c(nnc2C(F)(F)F)C1)Cc1cc(F)c(F)cc1F [Base, 7-[(3R)-3-amino-1-oxo-4-(2,4,5-trifluorophenyl)butyl)-5,6,7,8-tetrahydro-3-(trifluoromethyl)-1,2,4-triazolo[4,3-a]pyrazine, reference compound]	Hygroscopicity (water content) ([1]; 2 weeks 43 % rh): 0.19%; Hygroscopicity (water content) ([1]; 2 weeks 75 % rh): 0.22%; Hygroscopicity (water content) ([1]; 2 weeks 93 % rh): 0.3%; change during the hygroscopicity studies ([1]; listed as free base): did not show much change; Initial water content ([1]; before humidity storage): 0.19%; stability (degradation, related substances by HPLC) ([2]; closed bottle, four weeks at 60 °C, listed as free base): stable; stability (degradation, related substances by HPLC) ([2]; closed bottle, two weeks at 60 °C, listed as free base): stable; stability (degradation, related substances by HPLC) ([2]; open bottle, twelve weeks at 40 °C and 75 % RH, listed as free base): stable
–	–	–	–	0.34	0.43	0.28	0.33	0.49	0.56	0.59	0.16	N[C@@H](CC(=O)N1CCn2c(nnc2C(F)(F)F)C1)Cc1cc(F)c(F)cc1F [C: Lactate, Sitagliptin Lactate]	Hygroscopicity (water content) ([1]; 2 weeks 43 % rh): 0.54%; Hygroscopicity (water content) ([1]; 2 weeks 75 % rh): 0.5%; Hygroscopicity (water content) ([1]; 2 weeks 93 % rh): 28.77 * %; Initial water content ([1]; before humidity storage): 0.51%; stability (degradation, related substances by HPLC) [2, 4]: showed a degradation; stability (degradation, related substances by HPLC) [2, 3]: degradation was observed; stability (degradation, related substances by HPLC) ([2]; open bottle, twelve weeks at 40 °C and 75 % RH): shows degradation
2.24 ss %	β 4.81%	24.85** %	1.039	0.24	1.81	0.49	0.61	4.06	1.09	0.99	0.05	N[C@@H](CC(=O)N1CCn2c(nnc2C(F)(F)F)C1)Cc1cc(F)c(F)cc1F [H: Glycolate]	–
2.58%	2.94%	3.23%	1.47	–	–	–	–	–	–	–	–	N[C@@H](CC(=O)N1CCn2c(nnc2C(F)(F)F)C1)Cc1cc(F)c(F)cc1F [J: Mesylate II]	–
–	–	–	–	–	–	–	–	–	–	–	–	N[C@@H](CC(=O)N1CCn2c(nnc2C(F)(F)F)C1)Cc1cc(F)c(F)cc1F [maleate (non solvated), Sitagliptin Maleate Form II]	stability (degradation, related substances by HPLC) [2, 3]: stable
